# Measured values published in patent publication US9050294B2, “Treatment of neural diseases or conditions” (Royal Institution for the Advancement of Learning/McGill …, priority 2008, dated 2015).
# “Also recorded” adds a separate entry of the source.
# Key:
# [1] = system: SOD1^G93A transgenic mice; assay: Glial activation in L4 ventral horn (GFAP and Mac-2 immunohistochemistry); format: in vivo, mouse; settings: L4, 130 days of age; p≦0.05
# Procedure: (B) For ALS studies: Mice were deeply anaesthetized with a cocktail of ketamine (7.5 mg/ml) and xylazine (0.5 mg/ml) administered via intraperitoneal injection at a dose of 20 ml/kg of body weight. Animals were then sacrificed by transcardial perfusion with 4% paraformaldehyde in 0.1M phosphate buffered saline (PBS). The fourth lumbar spinal cord segment, identified by its contribution to the sciatic nerve was carefully removed, post-fixed for 1 hour in 4% paraformaldehyde solution and cryoprotected overnight in 30% sucrose in 0.1M PBS. […] Images were imported into SigmaScan™ Pro Image Measurement Software Version 5.0.0 (SPSS Inc., Chicago, Ill.) and activated astrocytes and microglia were quantified by exceeding an intensity threshold. […] Serial sections from a separate set were stained for Nissle body detection using cresyl violet staining and the number of motor neurons surviving in the ventral horn were quantified.
# Immunohistochemistry was also performed on different serial sections from the same animals. […] Images of both ventral horns were captured every 300 μm and imported into SigmaScan™ Pro image quantification software. The area occupied by darkly stained cells was quantified and normalized for the total area.
# [2] = system: microglial cells; assay: Cell viability and cell de-attachment studies on microglial cells; format: cell-based, mouse; settings: 0.625 and 1.25 μM
# [3] = system: spinal cord injury (SCI) in BALB/c mice; assay: Oxidative stress markers (MDA, nitrotyrosine) in spinal cord after SCI, ELISA; format: in vivo, mouse; settings: 3 dpi, vs control mice
# Description: (§1) Fenretinide preparation and treatment.
# [4] = system: spinal cord injury (SCI) in BALB/c mice; assay: AA and DHA levels in plasma and spinal cord after spinal cord contusion (lipid analysis, GC/MS); settings: 5 mg/kg/day oral
# Procedure: Adult (8-10 weeks old) female BALB/c mice (Charles River Canada) were anaesthetized with ketamine:xylazine:acepromazine (50:5:1 mg/kg). After performing a laminectomy at the 11th thoracic vertebrae, the exposed spinal cord was contused using the Infinite™ Horizons Impactor device (Precision Scientific Instrumentation, Lexington, Ky.). Moderate injuries were made using a force of 50 kDynes and tissue displacements ranging between 400-600 μm (Ghasemlou et al. (2005) Exp. Neurol. 196: 9-17).
# Fenretinide preparation and treatment. Fenretinide powder was resuspended in 95% ethanol under sterile conditions to generate a 2 μg/μL stock solution. This solution was incorporated into a daily liquid diet of Peptamen™ (Nestle Canada, Brampton, ON) at a dose of 5 mg/kg/day for oral consumption as described previously (Guilbault et al. (2008) Am J Respir Cell Mol Biol 38: 47-56). The suspension was protected from light and kept at 4° C. before treatment of the mice. One hour following surgery and for the subsequent three days, fenretinide was administered by gavage in two doses, each suspended in 300 μL of Peptamen™. Gavage was chosen as the method of drug delivery immediately after surgery due to the loss of appetite and reduced food intake during the first 48 h after injury. After day three, mice were fed the fenretinide/Peptamen™ mixture. At this point mice were separated into individual cages in order to ascertain the amount of food and drug consumed. Following day 3, the diet was administered every morning with careful monitoring of the quantity consumed by each mouse. More specifically, the daily fenretinide dose was incorporated into 12 ml of Peptamen™, which represents 80% of the daily mouse food consumption, to ensure 100% consumption. The food was given to the mice in the mid-morning. The diet for control animals was prepared and administered in the same fashion as the drug treatment; however, control animals received Peptamen™ with no fenretinide added but with an equivalent amount of ethanol.
# (A) For SCI studies: in order to establish plasma kinetics, blood samples were taken from the saphenous vein at day 0, 1, 3, 7, 11, and 21 post-injury. On day 28, blood samples were obtained by intra-cardiac puncture. All blood samples were mixed with 10 μl of EDTA to prevent coagulation and centrifuged at 350×g for 7 minutes at 4° C. The plasma was then removed and lipids were extracted with chloroform-methanol (2:1 vol/vol) containing 1 mM butylated hydroxyanisole (BHA), as previously described (Folch et al. (1957) J Biol Chem 226: 497-509). The lipid fractions were dried under nitrogen and resuspended in heptane as previously described (De Sanctis (1991) Med Sci Res 19: 335-337). Phospholipids were identified by thin layer chromatography extraction. Diazomethane was used to esterify the released fatty acids and the esters were identified by GC/MS (Hewlett Packard 5880A, WCOT) capillary column (Supelco™-10, 35 m×0.5 mm, 1 μm thick) using commercial standards (Sigma-Aldrich, Oakville, ON, Canada). Total levels of DHA and AA as well as phospholipid-bound DHA, phospholipid-bound AA, malonyldialdehyde (MDA) and nitrotyrosine were assessed in both plasma and spinal cord samples.
# [5] = system: spinal cord injury (SCI) in BALB/c mice; assay: Locomotor recovery after SCI, Basso Mouse Scale (BMS) open-field test; format: in vivo
# Procedure: as §1
# Locomotor recovery was evaluated in an open-field test using the Basso Mouse Scale (BMS) (Basso et al. (2006) J Neurotrauma 23: 635-659), which was specifically developed for locomotor testing after contusion injuries in mice. The BMS analysis of hindlimb movements and coordination was carried out by two independent trained assessors, and the consensus score taken. The final score is presented as mean±SEM. The BMS is a compressed scale with a maximum score of 9 as compared to the […] BBB scale for rats. Therefore small differences in the BMS can account for larger functional differences.
structure (smiles),measurement,setting,value
"CC1=C(/C=C/C(C)=C/C=C/C(C)=C/C(=O)Nc2ccc(O)cc2)C(C)(C)CCC1 [fenretinide, all-trans-N-(4-hydroxyphenyl) retinamide]",GFAP staining of ventral horn: sham-treated mice greater than fenretinide-treated,[1],more than 50%
same,Mac-2 positive stained area: control animals more than fenretinide-treated,[1],60%
same,"toxic effects on the cells (cell viability, cell de-attachment)",[2],did not have any toxic effects
same,decrease of malonyldialdehyde (MDA) level in spinal cord,[3],about 2 fold
same,decrease of nitrotyrosine level in spinal cord,[3],about 2 fold
same,plasma docosahexaenoic acid (DHA) levels vs vehicle-treated mice,"[4]; started 1 h after SCI, 3 to 28 dpi",concomitant increase; also recorded: significantly higher
same,plasma arachidonic acid (AA) levels vs vehicle-treated mice,"[4]; started 1 h after SCI, day 1 to 28 after SCI",significant reduction
same,AA level in injured spinal cord vs vehicle,[4]; 3 dpi,significant decrease
same,DHA level in injured spinal cord vs vehicle,[4]; 3 dpi,increase
same,BMS score,"[5]; 5 mg/kg/day oral started 1 h after SCI, 28 dpi, 9-point scale, vehicle 4.6",5.8
same,mean BMS subscore higher than vehicle-treated mice,"[5]; 5 mg/kg/day oral, 28 dpi",2.2 points
same,fine locomotor skills (BMS subscores) vs vehicle,"[5]; 5 mg/kg/day oral, day 7 to 28 after SCI",significant improvement
same,locomotor function (BMS) vs vehicle-treated mice,"[5]; 5 mg/kg/day oral, significant from day 7 after SCI",improved locomotor function; also recorded: significantly enhanced motor skills
